Values joined by “and” are separate entries in the source; they are usually repeats but may differ in a detail not shown here. Equal entries are not always repeated.
Test system: 521955-158-R2-J5-PDC complex spheroid growth, % test/control
Test: Anticancer human tumor 521955-158-R2-J5-PDC patient-derived pancreatic carcinoma cell line growth inhibition [Asc]
Conditions: for viability, T/C: stronger effect = lower value
Outline: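 Spheroid model: tumor line + HUVEC + hMSC. Single agents and combinations; top conc. at/near clinical Cmax (10 microM if undetermined), half-log dilutions. DMSO stocks at 800-fold test concentration.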

[1] = curve of first compound, second compound 0.1 µM
[2] = curve of first compound, second compound 0.316 µM
[3] = curve of first compound, second compound 1 µM
[4] = curve of first compound, second compound 3.16 µM
[5] = curve of first compound, second compound 10 µM
[6] = second compound 0.1 µM, first compound 0.00316 µM
[7] = second compound 0.1 µM, first compound 0.01 µM
[8] = second compound 0.1 µM, first compound 0.0316 µM
[9] = second compound 0.1 µM, first compound 0.1 µM
[10] = second compound 0.316 µM, first compound 0.00316 µM
[11] = second compound 0.316 µM, first compound 0.01 µM
[12] = second compound 0.316 µM, first compound 0.0316 µM
[13] = second compound 0.316 µM, first compound 0.1 µM
[14] = second compound 1 µM, first compound 0.00316 µM
[15] = second compound 1 µM, first compound 0.01 µM
[16] = second compound 1 µM, first compound 0.0316 µM
[17] = second compound 1 µM, first compound 0.1 µM
[18] = second compound 3.16 µM, first compound 0.00316 µM
[19] = second compound 3.16 µM, first compound 0.01 µM
[20] = second compound 3.16 µM, first compound 0.0316 µM
[21] = second compound 3.16 µM, first compound 0.1 µM
[22] = second compound 10 µM, first compound 0.00316 µM
[23] = second compound 10 µM, first compound 0.01 µM
[24] = second compound 10 µM, first compound 0.0316 µM
[25] = second compound 10 µM, first compound 0.1 µM
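Note: spheroids exposed to agents for 7 days before readout.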
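Throughout, for viability, T/C: 100% = DMSO vehicle control viability.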

| IC50 [1] [µM] | IC50 [2] [µM] | IC50 [3] [µM] | IC50 [4] [µM] | IC50 [5] [µM] | Compound | viability, T/C [6] [%] | viability, T/C [7] [%] | viability, T/C [8] [%] | viability, T/C [9] [%] | viability, T/C [10] [%] | viability, T/C [11] [%] | viability, T/C [12] [%] | viability, T/C [13] [%] | viability, T/C [14] [%] | viability, T/C [15] [%] | viability, T/C [16] [%] | viability, T/C [17] [%] | viability, T/C [18] [%] | viability, T/C [19] [%] | viability, T/C [20] [%] | further results |
| --- | --- | --- | --- | --- | --- | --- | --- | --- | --- | --- | --- | --- | --- | --- | --- | --- | --- | --- | --- | --- | --- |
| > 0.1 | > 0.1 | 0.0531 | 0.029 | > 0.1 | Cn1ncnc1[C@H]1c2n[nH]c(=O)c3cc(F)cc(c23)N[C@@H]1c1ccc(F)cc1 + Cc1c(S(C)(=O)=O)c(-c2cc(F)cc(N3CCN(c4ccc(NS(=O)(=O)c5ccc(NC(CCN6CCC(C(=O)OCCCP(=O)(O)O)CC6)CSc6ccccc6)c(S(=O)(=O)C(F)(F)F)c5)cc4)CC3)c2)c(-c2ccc(Cl)cc2)n1C(C)C | 61.1 | 67.2 | 53.3 | 53.1 | 74.6 | 81.4 | 65.1 | 68.8 | 102 | 55.1 | 54.8 | 56.5 | 82.3 | 70.6 | 39.8 | viability, T/C (second compound 0.1 µM, first compound 0.000316 µM): 93.4%; viability, T/C (second compound 0.1 µM, first compound 0.001 µM): 80.7%; viability, T/C (second compound 0.316 µM, first compound 0.000316 µM): 99.6%; viability, T/C (second compound 0.316 µM, first compound 0.001 µM): 84.3%; viability, T/C (second compound 1 µM, first compound 0.000316 µM): 151%; viability, T/C (second compound 1 µM, first compound 0.001 µM): 85%; viability, T/C (second compound 3.16 µM, first compound 0.000316 µM): 78.3%; viability, T/C (second compound 3.16 µM, first compound 0.001 µM): 105%; viability, T/C [21]: 56.8%; viability, T/C (second compound 10 µM, first compound 0.000316 µM): 241%; viability, T/C (second compound 10 µM, first compound 0.001 µM): 216%; viability, T/C [22]: 201%; viability, T/C [23]: 173%; viability, T/C [24]: 236%; viability, T/C [25]: 164% |
|  |  |  |  |  | COc1c(OCCCN2CCOCC2)ccc2c3n(c(=NC(=O)c4cnc(N)nc4)nc12)CCN3 |  |  |  |  |  |  |  |  |  |  |  |  |  |  |  | viability, T/C (compound 0.00316 µM): 53.2% and 58.9% and 68.7%; viability, T/C (compound 0.01 µM): 51.9% and 45.7% and 44%; viability, T/C (compound 0.0316 µM): 40.8% and 38.2% and 34.3%; viability, T/C (compound 0.1 µM): 30.1% and 31.6% and 29.1%; viability, T/C (compound 0.316 µM): 18.9% and 20% and 19.9%; viability, T/C (compound 1 µM): 15.3% and 16.1% and 14.2%; IC50 (curve of compound): 0.0107 µM and 0.00752 µM and 0.00861 µM |
| > 1 | > 1 | > 1 | > 1 | > 1 | CNC(C)C(=O)NC1CN(S(=O)(=O)c2cccc(S(=O)(=O)N3CCC4CCC(C(=O)NC(c5ccccc5)c5ccccc5)N4C(=O)C(NC(=O)C(C)NC)C3)c2)CCC2CCC(C(=O)NC(c3ccccc3)c3ccccc3)N2C1=O (configuration not stated) + Cc1c(S(C)(=O)=O)c(-c2cc(F)cc(N3CCN(c4ccc(NS(=O)(=O)c5ccc(NC(CCN6CCC(C(=O)OCCCP(=O)(O)O)CC6)CSc6ccccc6)c(S(=O)(=O)C(F)(F)F)c5)cc4)CC3)c2)c(-c2ccc(Cl)cc2)n1C(C)C | 75.6 | 64 | 57.1 | 76.4 | 92.7 | 86.7 | 89.3 | 74.6 | 97.2 | 88.4 | 71.8 | 77.8 | 97.7 | 75.9 | 47.5 | viability, T/C (second compound 0.1 µM, first compound 0.316 µM): 64%; viability, T/C (second compound 0.1 µM, first compound 1 µM): 67.9%; viability, T/C (second compound 0.316 µM, first compound 0.316 µM): 91.1%; viability, T/C (second compound 0.316 µM, first compound 1 µM): 87.6%; viability, T/C (second compound 1 µM, first compound 0.316 µM): 59.8%; viability, T/C (second compound 1 µM, first compound 1 µM): 75.7%; viability, T/C [21]: 80.6%; viability, T/C (second compound 3.16 µM, first compound 0.316 µM): 65.8%; viability, T/C (second compound 3.16 µM, first compound 1 µM): 60.4%; viability, T/C [22]: 192%; viability, T/C [23]: 171%; viability, T/C [24]: 180%; viability, T/C [25]: 149%; viability, T/C (second compound 10 µM, first compound 0.316 µM): 197%; viability, T/C (second compound 10 µM, first compound 1 µM): 121% |
